“Also recorded” adds a separate entry of the source. Where two headings read alike, the source gives them in different places.
How the values were obtained:
HL60 cells [1] = type: cell-based, Human
HL60 cells [2] = type: cell-based, Human; remark: listed apart in the source
HL60 cells [3] = type: cell-based, Human; remark: listed apart in the source
[4] = test system: C57BL6 mice splenic cells; type: cell-based, mouse
A20 cells [5] = assay: A20 cell viability; type: cell-based, mouse; details: 48 h; for Effect on A20 viability vs control: H2O2 experiment
Experimental: (§1) Cells (1×10^5 per well) were seeded in 96-wells round bottom plates (Falcon, Corning, reference: 353077) and incubated for 48 hours with different experimental conditions in an incubator at 37° C. 5% CO2. Two plates were prepared in parallel to measure respectively the H2O2 production and A20 cell viability.
(§2) H2O2 production, GSH production and cell viability were measured using the same protocols as above-described for […].
(§3) Conditions of Treatments and Related Experimentations: 1 Test H2O2— 1 Test GSH • H2O2 or GSH production and cell survival: As2O3 (1 μM) with CuCl2 at 0.5; 1; 2 and 4 μM.

[6] = test system: chronic sclerodermatous Graft versus Host Disease
BALB/c mice = assay: Copper cytotoxicity assessment in mice; type: in vivo, mouse; details: copper 0.2 and 0.5 μg/g, 5 times a week for 5 weeks
Experimental: To this aim, we injected a lower dose of copper (0.2 and 0.5 μg/g) 5 times a week for 5 weeks to a new series of BALB/c mice. We observed the mice every day, monitored their weight and followed their survival to evaluate copper toxicity.

Treg and T17 balance = details: rheumatoid arthritis patients; Li et al. 2019; cited from earlier work
A20 cells [7] = assay: GSH production in A20 cultured cells; type: cell-based, mouse; details: 48 h, As2O3 at 1 μM, test 1
Experimental: as §1, §2, §3

A20 cells [8] = assay: H2O2 production in A20 cultured cells; type: cell-based, mouse; details: 48 h, As2O3 at 1 μM, test 1
Experimental: as §1, §2, §3

MRL/lpr mice = details: Bobé et al., Blood 2006; cited from earlier work
caspase-1 = biological target: T1, caspase-1 (Homo sapiens, UniProt P29466); details: Maier et al., J. Immunol. 2014; cited from earlier work
T1 sequence (P29466 120-404): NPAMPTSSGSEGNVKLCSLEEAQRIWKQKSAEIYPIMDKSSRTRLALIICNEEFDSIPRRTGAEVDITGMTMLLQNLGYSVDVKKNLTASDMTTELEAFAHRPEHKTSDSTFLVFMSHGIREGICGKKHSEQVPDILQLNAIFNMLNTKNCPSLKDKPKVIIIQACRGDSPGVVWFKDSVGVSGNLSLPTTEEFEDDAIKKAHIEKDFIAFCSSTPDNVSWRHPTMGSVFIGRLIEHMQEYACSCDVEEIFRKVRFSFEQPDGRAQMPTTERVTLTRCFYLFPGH

[9] = Allogeneic + As2O3 2.5 μg/g, 9 mice
[10] = Allogeneic + As2O3 5 μg/g, 5 mice

For `[Cl][Cu][Cl]` [CuCl2, copper(II) chloride], the “Cell survival in presence of AsI3” value (HL60 cells [1]) was “no effect”, the “Cell survival: cations vs control” value (HL60 cells [1]; HL60 cells, 48 h (GSH experiment, Example 4), concentration(s) giving a significant difference, tests 1 and 2) was “no significant effect; also recorded: Not significant” and the “Cell survival: cations vs control” value (HL60 cells [1]; HL60 cells, 48 h (H2O2 experiment), cation concentration(s) giving a statistically significant difference, tests 1 and 2) was “no real effect; also recorded: Not significant”. For the same compound, the “Cell survival: As2O3 + cations vs As2O3” value (HL60 cells [1]; HL60 cells, 48 h, As2O3 1 μM (GSH experiment, Example 4), concentration(s) giving a significant difference, tests 1 and 2) was “no significant effect; also recorded: Not significant”, the “Cell survival: As2O3 + cations vs As2O3” value (HL60 cells [1]; HL60 cells, 48 h, As2O3 1 μM (H2O2 experiment), cation concentration(s) giving a statistically significant difference, tests 1 and 2) was “no real effect; also recorded: Not significant” and the “Effect on HL60 survival in the presence of As2O3” value (HL60 cells [1]; HL60 cells, 48 h, CuCl2 at 1 and 4 μM with As2O3 0.1-10 μM) was “no additional nor protective effect”. For the same compound, the “Effect of AsI3 on H2O2 production: AsI3 + CuCl2 vs AsI3” value (HL60 cells [2]) was “significantly increased”, the “Effect on the H2O2 production induced by As2O3” value (HL60 cells [2]) was “significantly increases” and the “H2O2 Production: cations vs control” value (HL60 cells [2]) was “no significant effect; also recorded: Not significant”. For the same compound, the “Effect on the GSH production induced by As2O3” value (HL60 cells [3]) was “reduce”, the “GSH Production: cations vs control” value (HL60 cells [3]) was “no significant effect; also recorded: Not significant” and the “Cell proliferation: As2O3 + cations vs As2O3” value (shortened to “Cell proliferation … vs As2O3”) ([4]; MLR, 48 h, As2O3 1 μM, cation concentration(s) giving a significant decrease of proliferation, test 1) was 4 μM (test 1). The “Cell proliferation … vs As2O3” value ([4]; MLR, 48 h, As2O3 1 μM, cation concentration(s) giving a significant decrease of proliferation, tests 1 and 2) was 4 μM or 2 and 4, the “Proliferation of C57BL6 spleen cells in the presence of AsI3: CuCl2 concentrations with significant decrease” value ([4]; MLR, 48 h, AsI3 1 μM, test 2) was 4 µM and the “Cell survival: As2O3 + cations vs As2O3” value (A20 cells [5]; As2O3 1 μM (GSH experiment), CuCl2 concentration(s) giving a significant increase of viability, 1 test) was 4 µM. The “Mortality in the copper-treated groups” value ([6]; copper 2.5 or 10 μg/g i.p. 5 times a week, injections stopped at the end of day 4) was “significant loss of mice”, the “Mortality in the copper-treated groups” value ([6]; copper injected only twice a week from day 8 until the end of the 5 weeks) was “no more copper-treated mice died” and the “Death after 5 weeks” value (BALB/c mice) was “no death”. The “Mean weights vs control group receiving PBS” value (BALB/c mice) was “similar”.
With `O=S(=O)([O-])[O-].[Fe+2]` [FeSO4] the “Cell survival: As2O3 + cations vs As2O3” value (HL60 cells [1]) was “no significant effect; also recorded: Not significant”, the “Cell survival: cations vs control” value (HL60 cells [1]) was “no significant effect; also recorded: Not significant” and the “Cell proliferation … vs As2O3” value [4] was “does not have a significant effect”.
In the case of `[Cl][Mn][Cl]` [MnCl2], the “Cell survival: As2O3 + cations vs As2O3” value (HL60 cells [1]) is reported as “Not significant”, the “Cell survival: cations vs control” value (HL60 cells [1]) is reported as “Not significant” and the “H2O2 Production: As2O3 + cations vs As2O3” value (“H2O2 Production … vs As2O3” for short) (HL60 cells [2]) is reported as 1 µM. For the same compound, the “H2O2 Production: cations vs control” value (HL60 cells [2]) was 1 µM.
With `O=S(=O)([O-])[O-].[Zn+2]` [ZnSO4] the “Cell survival: As2O3 + cations vs As2O3” value (HL60 cells [1]) was “no significant and reproducible effect; also recorded: Not significant”.
With `O=S(=O)([O-])[O-].[Mn+2]` [MnSO4] the “Cell survival: As2O3 + cations vs As2O3” value (HL60 cells [1]) was “no real effect; also recorded: Not significant” and the “H2O2 Production … vs As2O3” value (HL60 cells [2]) was 0.25 µM.
In the case of `[Cl-].[Cl-].[Zn+2]` [ZnCl2], the “Cell survival: As2O3 + cations vs As2O3” value (HL60 cells [1]) is reported as “no significant and reproducible effect; also recorded: Not significant”, the “Cell survival: cations vs control” value (HL60 cells [1]) is reported as “Not significant” and the “H2O2 Production … vs As2O3” value (HL60 cells [2]) is reported as “Not significant”.
In the case of Arsenic Trioxide [As2O3], the “Treg and T17 balance” value (Treg and T17 balance) is given as “improves”, the “Effect on GSH production vs control” value (A20 cells [7]) is given as “significantly increased” and the “Effect on the production of H2O2” value (HL60 cells [2]) is given as “not significant, but it increases at 5 μM”. For the same compound, the “Effect on GSH production vs control” value (HL60 cells [3]) was “significantly increases”, the “Cell proliferation in the presence of mitogen” value [4] was “completely inhibits” and the “Effect on A20 cells viability vs control” value (A20 cells [5]; As2O3 at 1 μM, GSH experiment, test 1) was “significantly reduced”. The “Effect on A20 viability vs control” value (A20 cells [5]; As2O3 at 1 μM, test 1) was “reduced”, the “Effect on A20 viability vs control” value (A20 cells [5]; As2O3 at 1 μM, test 2) was “significantly reduced” and the “Effect on H2O2 production vs control” value (A20 cells [8]) was “significantly increased”. For the same compound, the “Survival of MRL/lpr mice” value (MRL/lpr mice) was “significantly prolonged”, the “Number of mice at the end (live mice)” value ([6]; Allogeneic + As2O3 2.5 μg/g i.p. 5 times a week for 5 weeks, 10 mice at the beginning) was 9 and the “Ear thickness (vasculitis)” value ([6]; Allogeneic + As2O3 2.5 μg/g vs allogeneic) was “reduced”. The “Number of mice with alopecia” value [6, 9] was 3, the “Percentage of mice with alopecia” value [6, 9] was 33% and the “Number of mice at the end (live mice)” value ([6]; Allogeneic + As2O3 5 μg/g i.p. 5 times a week for 5 weeks, 7 mice at the beginning) was 5. The “Ear thickness (vasculitis)” value ([6]; Allogeneic + As2O3 5 μg/g vs allogeneic) was “decreased even more until reaching the same values as the ones of the syngeneic group”, the “Number of mice with alopecia” value [6, 10] was 1 and the “Percentage of mice with alopecia” value [6, 10] was 20%. The “Inhibition of caspase-1 and the innate immune response” value (caspase-1) was “potent inhibitors”.
